Measurements taken from patent US20240277670A1, “SAFE USE OF MMP-12 INHIBITOR” (Foresee Pharmaceuticals Co., Ltd., priority 2021, published 2024).

Test: Single ascending dose (SAD) study, safety and tolerability
Format: in vivo, human
Description: Eight cohorts of eight subjects each (six on active and two on placebo) were enrolled. Two different oral formulations of the compound of formula (I) were tested. The initial formulation was neat active pharmaceutical ingredient (API) filled in oral capsules of the compound of formula (I) (API-in-Capsule) which was tested at three dose levels: 200 mg, 400 mg, and 800 mg. Subsequently, an improved oral formulation was tested, the amorphous solid dispersion (ASD) of the compound of formula (I) (ASD-in-Capsule) at five dose levels: 50 mg, 100 mg, 200 mg, 350 mg, and 450 mg (FIG. 1).
Safety and tolerability were assessed at pre-specified timepoints throughout the studies by AEs reporting, vital signs measurements, physical examination, laboratory tests, and ECG examinations.
Safety and tolerability data were evaluated for the treated population (all participants who took at least one dose of study medications). […] Descriptive statistics were used to evaluate the safety and tolerability data and for plasma concentrations and PK parameters of the compound of formula (I).

## Cc1cccc(COc2ccc(Sc3ccoc3C3NC(=O)NC3=O)cc2)c1 (stereo not drawn) [compound of formula (I)]
Across all dose levels studied
  Safety and tolerability, overall: safe and generally well-tolerated
All dose levels and both formulations
  Severe or serious AEs: No severe or serious AEs were reported
Any time point
  Changes from baseline in weight, vital signs, physical examination, laboratory or ECG data: No clinically relevant changes
